Test [1] concerns the target FGFR3-BAIAP2L1 Ba/F3 cells (Homo sapiens, UniProt P22607). In words: Ba/F3 cell viability assay (CellTiter-Glo 2.0), FGFR3-BAIAP2L1 Ba/F3. In kind it is cell-based. The following applies: for Ba/F3 FGFR1/FGFR3 Selectivity: FGFR3 > FGFR1 selectivity ratio in Ba/F3 FGFR fusion cell based assays; for IC50: read-out: Ba/F3 Cells FGFR3 (IC50 nM), FGFR3-BAIAP2L1 Ba/F3 cells, 48 hours, Cell Titer Glo 2.0. Put shortly:
(§1)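 IL3-independent Ba/F3 lines driven by FGFR1-BCR or FGFR3-BAIAP2L1 fusions, in RPMI1640/10% FBS. 9-dose 10-fold series from 30 μM, triplicate, 48 h at 37 °C; viability by CellTiter-Glo 2.0 ATP luminescence relative to DMSO control, IC50 from 4-parameter sigmoidal fit.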
A general note: ATP-based viability assays read luminescence as a measure of living cells.

Test [2] has as its system KG-1 cells (FGFR1-fusion). The test can be described thus: KG-1 cancer cell line cell viability assay (CellTiter-Glo 2.0). The following applies: Homo sapiens, 72 hours, Cell Titer Glo 2.0. In kind it is cell-based. An outline of the steps:
(§2)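 RT112/84, UM-UC-14 and KG-1 cells (10,000/well, RPMI1640 with 10% FBS) were treated with a 9-dose, 10-fold series starting at 30 μM, in triplicate, for 72 h at 37 °C. ATP was read by CellTiter-Glo 2.0 luminescence relative to DMSO controls, and IC50 was fitted with a 4-parameter sigmoidal model.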

The test system of test [3] is RT112/84 cells (FGFR3-fusion). The test can be described thus: RT112/84 cancer cell line cell viability assay (CellTiter-Glo 2.0). To be noted: Homo sapiens, 72 hours, Cell Titer Glo 2.0. In kind it is cell-based. Put shortly: as §2
Test [4] has as its target FGFR1-BCR Ba/F3 cells (Homo sapiens, UniProt P11362). In words: Ba/F3 cell viability assay (CellTiter-Glo 2.0), FGFR1-BCR Ba/F3. The format is cell-based. The following applies: read-out: Ba/F3 Cells FGFR1 (IC50 nM), 48 hours, Cell Titer Glo 2.0. Put shortly: as §1
Test [5] deals with UM-UC-14 cells (FGFR3(S249C)). The test can be described thus: UM-UC-14 cancer cell line cell viability assay (CellTiter-Glo 2.0). In kind it is cell-based. To be noted: UMUC14, 72 hours, Cell Titer Glo 2.0. An outline of the steps:
as §2

Test [6] has as its target FGFR2 (Homo sapiens (Human), UniProt P21802). The test can be described thus: Kinase assay, binding constants (Kd), kinase-tagged T7 phage, qPCR. Put shortly: (§3)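 Competition binding: kinase-tagged T7 phage lysates mixed with immobilized biotinylated ligand on streptavidin beads plus compound (11-point 3-fold dilution series, 0.9% DMSO final). Bound kinase eluted with free ligand and quantified by qPCR. Kd from Hill equation fit, slope fixed at −1.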

Test [7] concerns the target FGFR3 (Homo sapiens (Human), UniProt P22607). The description is as above. Put shortly: as §3
For test [8], the target named is FGFR1 (Homo sapiens (Human), UniProt P11362). The description is as above. An outline of the steps:
as §3

Test [9] has as its target FGFR3 (V555M) (Homo sapiens (Human), UniProt P22607, V555M). Described as above. To be noted: V555M mutant. An outline of the steps: as §3
Test [10] concerns the target FGFR4 (Homo sapiens (Human), UniProt P22455). The description is as above. Put shortly: as §3

Chain of FGFR2 (P21802 22-821): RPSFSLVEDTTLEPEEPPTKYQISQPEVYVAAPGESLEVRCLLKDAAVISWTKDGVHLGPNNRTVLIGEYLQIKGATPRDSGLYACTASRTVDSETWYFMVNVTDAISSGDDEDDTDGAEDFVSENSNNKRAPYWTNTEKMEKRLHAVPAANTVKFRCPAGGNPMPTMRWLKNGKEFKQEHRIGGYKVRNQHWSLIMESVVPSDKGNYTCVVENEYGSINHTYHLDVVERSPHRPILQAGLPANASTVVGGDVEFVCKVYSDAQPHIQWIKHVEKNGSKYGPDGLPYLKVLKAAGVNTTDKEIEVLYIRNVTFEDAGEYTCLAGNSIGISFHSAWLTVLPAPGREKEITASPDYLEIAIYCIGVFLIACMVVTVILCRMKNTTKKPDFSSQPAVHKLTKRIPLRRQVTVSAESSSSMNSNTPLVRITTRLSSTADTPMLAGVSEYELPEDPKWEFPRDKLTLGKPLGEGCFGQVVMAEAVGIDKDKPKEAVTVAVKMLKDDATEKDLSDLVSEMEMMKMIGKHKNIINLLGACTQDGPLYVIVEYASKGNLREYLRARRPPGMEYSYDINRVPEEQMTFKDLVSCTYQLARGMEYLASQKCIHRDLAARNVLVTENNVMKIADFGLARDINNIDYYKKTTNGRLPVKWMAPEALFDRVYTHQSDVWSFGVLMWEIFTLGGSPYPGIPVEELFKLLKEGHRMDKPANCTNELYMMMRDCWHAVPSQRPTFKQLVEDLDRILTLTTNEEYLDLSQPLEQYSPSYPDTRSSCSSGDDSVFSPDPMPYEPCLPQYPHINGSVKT
Chain of FGFR3 (V555M) (P22607 23-806 V555M): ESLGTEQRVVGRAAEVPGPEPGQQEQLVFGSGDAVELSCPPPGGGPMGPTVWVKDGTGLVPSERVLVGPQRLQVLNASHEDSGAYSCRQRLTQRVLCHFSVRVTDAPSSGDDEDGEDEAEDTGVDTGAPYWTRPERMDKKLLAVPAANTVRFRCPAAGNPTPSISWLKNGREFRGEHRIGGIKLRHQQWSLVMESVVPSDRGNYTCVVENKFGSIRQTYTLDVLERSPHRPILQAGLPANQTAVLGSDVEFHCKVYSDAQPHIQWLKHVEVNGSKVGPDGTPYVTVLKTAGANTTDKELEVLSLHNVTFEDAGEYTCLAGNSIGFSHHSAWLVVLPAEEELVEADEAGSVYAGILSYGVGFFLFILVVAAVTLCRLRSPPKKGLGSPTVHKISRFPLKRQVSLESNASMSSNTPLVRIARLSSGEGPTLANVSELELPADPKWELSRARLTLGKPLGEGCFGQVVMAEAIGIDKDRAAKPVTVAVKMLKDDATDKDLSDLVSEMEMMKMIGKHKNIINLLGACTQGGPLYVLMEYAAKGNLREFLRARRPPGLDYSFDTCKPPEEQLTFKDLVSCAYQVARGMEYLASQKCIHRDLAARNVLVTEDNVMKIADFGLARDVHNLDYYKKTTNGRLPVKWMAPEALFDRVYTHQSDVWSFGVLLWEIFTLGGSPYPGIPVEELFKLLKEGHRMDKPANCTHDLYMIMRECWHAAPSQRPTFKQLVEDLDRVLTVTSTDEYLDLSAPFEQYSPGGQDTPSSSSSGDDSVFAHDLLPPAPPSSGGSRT
Chain of FGFR1-BCR Ba/F3 cells (P11362 22-822 limits assumed, stated change not applied): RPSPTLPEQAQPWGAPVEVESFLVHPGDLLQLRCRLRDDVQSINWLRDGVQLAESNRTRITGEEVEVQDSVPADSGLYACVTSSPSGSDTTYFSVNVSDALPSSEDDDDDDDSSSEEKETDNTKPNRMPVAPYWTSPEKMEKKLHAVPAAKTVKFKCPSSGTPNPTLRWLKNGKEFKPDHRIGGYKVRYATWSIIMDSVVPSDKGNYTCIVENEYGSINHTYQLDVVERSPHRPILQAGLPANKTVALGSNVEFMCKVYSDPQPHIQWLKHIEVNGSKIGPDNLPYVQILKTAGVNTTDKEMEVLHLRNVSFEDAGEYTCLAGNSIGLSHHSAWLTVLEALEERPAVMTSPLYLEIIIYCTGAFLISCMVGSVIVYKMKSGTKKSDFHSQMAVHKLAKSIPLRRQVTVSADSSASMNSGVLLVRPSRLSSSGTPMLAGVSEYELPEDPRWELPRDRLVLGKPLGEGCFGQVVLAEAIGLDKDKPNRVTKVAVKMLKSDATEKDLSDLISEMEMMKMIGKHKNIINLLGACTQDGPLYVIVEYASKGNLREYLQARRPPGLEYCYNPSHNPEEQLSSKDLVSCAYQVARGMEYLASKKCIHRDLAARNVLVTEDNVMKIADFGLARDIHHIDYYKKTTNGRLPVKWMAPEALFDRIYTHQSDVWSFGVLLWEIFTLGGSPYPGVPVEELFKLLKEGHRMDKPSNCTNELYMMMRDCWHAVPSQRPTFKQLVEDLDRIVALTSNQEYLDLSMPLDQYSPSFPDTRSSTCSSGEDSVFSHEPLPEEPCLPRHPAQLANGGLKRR
Chain of FGFR1 (P11362 22-822): as the sequence (P11362 22-822 limits assumed, stated change not applied) above
Chain of FGFR3 (P22607 23-806): as the sequence (P22607 23-806 V555M) above, with M533V counted along it
Chain of FGFR3-BAIAP2L1 Ba/F3 cells (P22607 23-806 limits assumed, change not shown): as the sequence (P22607 23-806 V555M) above, with M533V counted along it
Chain of FGFR4 (P22455 22-802): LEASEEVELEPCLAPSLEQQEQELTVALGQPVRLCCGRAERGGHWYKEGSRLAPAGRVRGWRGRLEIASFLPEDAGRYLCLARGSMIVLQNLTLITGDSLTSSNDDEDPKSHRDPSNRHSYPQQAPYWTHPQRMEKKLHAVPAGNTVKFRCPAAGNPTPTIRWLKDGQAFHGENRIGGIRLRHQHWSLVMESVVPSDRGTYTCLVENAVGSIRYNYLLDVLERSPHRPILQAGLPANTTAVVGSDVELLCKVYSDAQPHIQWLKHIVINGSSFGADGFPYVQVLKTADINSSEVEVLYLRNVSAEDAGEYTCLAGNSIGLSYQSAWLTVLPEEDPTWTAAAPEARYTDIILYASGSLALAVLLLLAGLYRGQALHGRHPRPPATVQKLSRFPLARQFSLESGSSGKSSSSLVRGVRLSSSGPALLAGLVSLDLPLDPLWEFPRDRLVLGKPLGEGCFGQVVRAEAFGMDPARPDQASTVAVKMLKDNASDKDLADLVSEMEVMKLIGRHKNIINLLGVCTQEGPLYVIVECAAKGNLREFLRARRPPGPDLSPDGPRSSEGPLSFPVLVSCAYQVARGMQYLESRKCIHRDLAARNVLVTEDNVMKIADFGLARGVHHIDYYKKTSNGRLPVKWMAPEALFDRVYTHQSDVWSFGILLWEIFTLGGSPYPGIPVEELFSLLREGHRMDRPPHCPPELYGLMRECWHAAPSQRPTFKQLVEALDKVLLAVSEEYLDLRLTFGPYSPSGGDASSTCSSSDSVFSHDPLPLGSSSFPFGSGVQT

As a reminder, the Kd is the equilibrium constant for the complex coming apart. As for `C[C@@H](Oc1ccc2[nH]nc(-c3ccc(N4CCC5(CCNC5=O)CC4)nc3)c2c1)c1c(Cl)cncc1Cl` [Example 27, 8-[5-[5-[(1R)-1-(3,5-dichloro-4-pyridyl)ethoxy]-1H-indazol-3-yl]-2-pyridyl]-2,8-diazaspiro[4.5]decan-1-one], the “Ba/F3 FGFR1/FGFR3 Selectivity” value in test [1] came out at 24. In addition, the IC50 in [1] lay within 1 to 20 nM; in [2] it was 100 to 300 nM; in [3], 1 to 20 nM; in test [4] it was 100 to 300 nM; in [5], 1 to 20 nM. Moreover, the Kd lay in the range of 1 to 20 nM in test [6]; 1 to 20 nM in test [7]; 20 to 100 nM in [8]; 1 to 20 nM in test [9]; 1 to 20 nM in test [10].
Take `C[C@@H](Oc1ccc2[nH]nc(-c3ccc(N4CCC5(CCOC5)CC4)nc3)c2c1)c1c(Cl)cncc1Cl` [Example 28, 8-[5-[5-[(1R)-1-(3,5-dichloro-4-pyridyl)ethoxy]-1H-indazol-3-yl]-2-pyridyl]-2-oxa-8-azaspiro[4.5]decane]: in test [1], the “Ba/F3 FGFR1/FGFR3 Selectivity” value is reported as 22. Further, the IC50 is 1 to 20 nM in [1]; 100 to 300 nM in test [2]; 1 to 20 nM in test [3]; greater than 300 nM in [4]; 1 to 20 nM in test [5]. Also, the Kd lay within 20 to 100 nM in test [6]; 1 to 20 nM in test [7]; 20 to 100 nM in [8]; 1 to 20 nM in [9]; 1 to 20 nM in [10].
Regarding `C[C@@H](Oc1ccc2[nH]nc(-c3ccc(N4CCC5(CCN(C)C5)CC4)nc3)c2c1)c1c(Cl)cncc1Cl` [Example 32, 8-[5-[5-[(1R)-1-(3,5-dichloro-4-pyridyl)ethoxy]-1H-indazol-3-yl]-2-pyridyl]-2-methyl-2,8-diazaspiro[4.5]decane], the “Ba/F3 FGFR1/FGFR3 Selectivity” value in test [1] amounted to 12. For the same molecule, the IC50 in test [1] lay within 1 to 20 nM; in [2] it was 20 to 100 nM; in test [3], 1 to 20 nM; in test [4], 100 to 300 nM; in [5], 1 to 20 nM. Besides, the Kd in test [6], in test [7], in test [8], in [9] and in [10] was 1 to 20 nM in each case.
Regarding `C[C@@H](Oc1ccc2[nH]nc(-c3ccc(N4CCC5(CCCN5C)CC4)nc3)c2c1)c1c(Cl)cncc1Cl` [Example 33, 8-[5-[5-[(1R)-1-(3,5-dichloro-4-pyridyl)ethoxy]-1H-indazol-3-yl]-2-pyridyl]-1-methyl-1,8-diazaspiro[4.5]decane], the “Ba/F3 FGFR1/FGFR3 Selectivity” value in test [1] turned out to be 16. Also, the IC50 lay within 1 to 20 nM in test [1]; 20 to 100 nM in test [2]; 1 to 20 nM in test [3]; 20 to 100 nM in test [4]; 1 to 20 nM in [5]. The Kd in [6], in [7], in test [8], in test [9] and in test [10] was 1 to 20 nM each time.
Regarding `C[C@@H](Oc1ccc2[nH]nc(-c3ccc(N4CCC5(CC4)C(=O)NCCN5C)nc3)c2c1)c1c(Cl)cncc1Cl` [Example 34, 9-[5-[5-[(1R)-1-(3,5-dichloro-4-pyridyl)ethoxy]-1H-indazol-3-yl]-2-pyridyl]-1-methyl-1,4,9-triazaspiro[5.5]undecan-5-one], in [1], the “Ba/F3 FGFR1/FGFR3 Selectivity” value was found to be 28. Moreover, the IC50 in test [1] is 1 to 20 nM; in [2], 20 to 100 nM; in test [3], 1 to 20 nM; in [4], 20 to 100 nM; in test [5], 1 to 20 nM. Also, the equilibrium dissociation constant (Kd) in [6], in test [7], in test [8], in [9] and in [10] was 1 to 20 nM throughout.
In the case of `C[C@@H](Oc1ccc2[nH]nc(-c3ccc(N4CC5(C4)CN(S(C)(=O)=O)C5)nc3)c2c1)c1c(Cl)cncc1Cl` [Example 46, 5-[(1R)-1-(3,5-dichloro-4-pyridyl)ethoxy]-3-[6-(2-methylsulfonyl-2,6-diazaspiro[3.3]heptan-6-yl)-3-pyridyl]-1H-indazole], the “Ba/F3 FGFR1/FGFR3 Selectivity” value in [1] came out at 14. Besides, the IC50 in test [1] is 1 to 20 nM; in [2], 20 to 100 nM; in [3], 1 to 20 nM; in test [4], 20 to 100 nM; in [5] it was 1 to 20 nM. The Kd in test [6], in test [7], in [8], in test [9] and in [10] was 1 to 20 nM throughout.
Consider `C[C@@H](Oc1ccc2[nH]nc(-c3ccc(N4CC5(CN(C(=O)N(C)C)C5)C4)nc3)c2c1)c1c(Cl)cncc1Cl` [Example 47, 6-[5-[5-[(1R)-1-(3,5-dichloro-4-pyridyl)ethoxy]-1H-indazol-3-yl]-2-pyridyl]-N,N-dimethyl-2,6-diazaspiro[3.3]heptane-2-carboxamide], for which the “Ba/F3 FGFR1/FGFR3 Selectivity” value in [1] is given as 21. The IC50 in test [1] was in the range of 1 to 20 nM; in test [2], 100 to 300 nM; in test [3] it was 1 to 20 nM; in test [4] it was 100 to 300 nM; in test [5], 1 to 20 nM. The Kd in test [6], in test [7], in test [8], in test [9] and in [10] was 1 to 20 nM throughout.
`C[C@@H](Oc1ccc2[nH]nc(-c3cnc(N4CCC5(CCC(=O)N5)CC4)nc3)c2c1)c1c(Cl)cncc1Cl` [Example 48, 8-[5-[5-[(1R)-1-(3,5-dichloro-4-pyridyl)ethoxy]-1H-indazol-3-yl]pyrimidin-2-yl]-1,8-diazaspiro[4.5]decan-2-one]: in test [1], the “Ba/F3 FGFR1/FGFR3 Selectivity” value worked out at 8. The IC50 lay within 20 to 100 nM in [1]; 100 to 300 nM in test [2]; 20 to 100 nM in test [3]; 100 to 300 nM in test [4]; 20 to 100 nM in test [5]. In addition, the Kd in [6] lay within 20 to 100 nM; in [7] it was 1 to 20 nM; in test [8], 20 to 100 nM; in [9], 1 to 20 nM; in test [10] it was 1 to 20 nM.
Turning to `C[C@@H](Oc1ccc2[nH]nc(-c3cnc(N4CCC5(CC4)CNC(=O)C5)nc3)c2c1)c1c(Cl)cncc1Cl` [Example 49, 8-[5-[5-[(1R)-1-(3,5-dichloro-4-pyridyl)ethoxy]-1H-indazol-3-yl]pyrimidin-2-yl]-2,8-diazaspiro[4.5]decan-3-one], in test [1], the “Ba/F3 FGFR1/FGFR3 Selectivity” value was 10. Also, the IC50 in test [1] lay in the range of 1 to 20 nM; in [2], 100 to 300 nM; in test [3] it was 20 to 100 nM; in [4] it was 100 to 300 nM; in test [5] it was 20 to 100 nM. Further, the Kd lay in the range of 20 to 100 nM in [6]; 1 to 20 nM in test [7]; 20 to 100 nM in test [8]; 1 to 20 nM in test [9]; 1 to 20 nM in test [10].
`C[C@@H](Oc1ccc2[nH]nc(-c3cnc(N4CCC5(CCN(C)C5=O)CC4)nc3)c2c1)c1c(Cl)cncc1Cl` [Example 51, 8-[5-[5-[(1R)-1-(3,5-dichloro-4-pyridyl)ethoxy]-1H-indazol-3-yl]pyrimidin-2-yl]-2-methyl-2,8-diazaspiro[4.5]decan-1-one]: the “Ba/F3 FGFR1/FGFR3 Selectivity” value in test [1] is given as 7. Besides, the IC50 is 20 to 100 nM in [1]; 100 to 300 nM in [2]; 20 to 100 nM in test [3]; 100 to 300 nM in test [4]; 20 to 100 nM in test [5]. The Kd lay within 20 to 100 nM in [6]; 1 to 20 nM in test [7]; 20 to 100 nM in [8]; 1 to 20 nM in test [9]; 1 to 20 nM in test [10].
On to `C[C@@H](Oc1ccc2[nH]nc(-c3cnc(N4CCC5(CCCN5C)CC4)nc3)c2c1)c1c(Cl)cncc1Cl` [Example 52, 8-[5-[5-[(1R)-1-(3,5-dichloro-4-pyridyl)ethoxy]-1H-indazol-3-yl]pyrimidin-2-yl]-1-methyl-1,8-diazaspiro[4.5]decane], for which, in test [1], the “Ba/F3 FGFR1/FGFR3 Selectivity” value is 7. The IC50 in [1] was in the range of 20 to 100 nM; in test [2], 20 to 100 nM; in [3] it was 20 to 100 nM; in test [4], 100 to 300 nM; in [5] it was 20 to 100 nM. Moreover, the Kd is 20 to 100 nM in [6]; 1 to 20 nM in [7]; 1 to 20 nM in [8]; 1 to 20 nM in [9]; 1 to 20 nM in [10].

The values above are taken from patent publication US20240109865A1, “INDAZOLE COMPOUNDS AS KINASE INHIBITORS” (TYRA BIOSCIENCES, INC., priority 2020, published 2024).
